Consider 80 compounds from a melting point compilation (Tetko et al.).

As a reminder, the melting point is the temperature, or range, at which the solid turns liquid. Regarding `C1=CC2OC1c1ccccc12`, the melting point lay within 53 to 58 °C.

`CCN(CC)CCOC(=O)C(O)(c1ccccc1)c1ccccc1` had a melting point of 51 °C.

As for `O=C(Nc1ccccc1)c1cc(Cl)ccc1O`, the melting point was determined as 211 °C.

Compound `Cn1c(=O)c(C2=NNC(=O)C2=NNc2cccc(Cl)c2)c(O)c2ccccc21` gave a melting point of 222 °C.

`Brc1ccc(Oc2cccc(Br)c2)cc1` yielded a melting point of under 20 °C.

Take `CCOC(=O)c1cnc2c(c(C)nn2C)c1Oc1ccc(OC)cc1`: the melting point is 92 to 93.5 °C.

Turning to `S=C=Nc1cc(Cl)cc(Cl)c1`, the melting point worked out at 46 °C.

In the case of `NCCNCCNCCNCCN`, the melting point is -30 °C.

Regarding `CS(=O)(=O)OCCC(=O)N1CCN(C(=O)CCOS(C)(=O)=O)CC1`, the melting point came out at 175 °C.

`CC(=O)c1c(C)nc2cc3nc(C)c(C(C)=O)c(C)c3cc2c1C`: the melting point is 246 to 248 °C.

For the compound `COc1cc(CCNC(=O)CC(C)C)ccc1OCc1ccccc1`, the melting point worked out at 114 °C.

`CCCC(=O)c1ccc(O)cc1` displayed a melting point of 91 °C.

In turn, `CC(=O)Nc1ccc(C(F)(F)F)cc1Br` came in with a melting point of 144 to 146 °C.

In turn, `CCCCCc1ccc(C(C)=NO)cc1` came in with a melting point of 68 °C.

The compound `CCCCC(C(=O)O)C(=O)O` had a melting point of 104 °C.

Take `CCOC(=O)c1nn(-c2cc(-c3ccc(OC)cc3)n[nH]2)c(=N)c(-c2nc3ccccc3s2)c1C`: the melting point amounted to 175 °C.

In the case of `O=C1c2ccccc2-c2ccc(O)cc21`, the melting point is 205 °C.

`CNC(=O)c1cc(C)cc(Cl)c1NC(=O)c1cc(Br)nn1-c1ncccc1Cl` had a melting point of 209 °C.

In the case of `Cc1ccc(OCCCCBr)cc1`, the melting point came out at 40 °C.

`CC1(C)C=C(C(=O)ON2C(=O)CCC2=O)C(C)(C)N1O` gave a melting point of 175 to 178 °C.

Turning to `Brc1ccc(Oc2cc(Br)ccc2Br)c(Br)c1`, the melting point was under 20 °C.

As to `CC(=O)n1c(-c2ccccc2)c(O)c2ccc([N+](=O)[O-])cc21`, the melting point was 179 °C.

As for `N#CC1(O)CCCCC1`, the melting point turned out to be 35 °C.

Regarding `O=C(/C(=N/Nc1ccc(Br)cc1)S(=O)(=O)c1ccccc1)c1cccs1`, the melting point stood at 158 °C.

In turn, `O=Cc1ccccc1OCc1ccccc1` had a melting point of 47 °C.

`N#CCc1ccc(Cl)c(Cl)c1`: the melting point was 40 °C.

In the case of `CC1(C)OC(=O)C(c2ccccc2)C(=O)O1`, the melting point lay in the range of 135 to 140 °C.

As for `Cn1nc(-c2cccs2)cc1CO`, the melting point lay within 95 to 96 °C.

`CCCCCCCCCc1ccccc1` had a melting point of -24 °C.

In turn, `O=C1C=Cc2ccccc2C1=O` came in with a melting point of 136 to 141 °C.

In turn, `Cc1ccc(C#N)n1C` yielded a melting point of 53 to 56 °C.

Compound `O=C(O)CCC(=O)OOC(=O)CCC(=O)O` gave a melting point of 127 °C.

The compound `Cc1cccc(C(N)=NO)c1` yielded a melting point of 143 to 146 °C.

`CCCCCCCCC=CCCCCCCCC(=O)OC` had a melting point of 9.5 °C.

With `O=C1C=C(Nc2cccc(O)c2)c2ccccc2C1=O`, the melting point came out at 300 °C.

Compound `CCCCCCCCC=CCCCCCCCCCCCCO` registered a melting point of 35 °C.

Take `Nc1c(Cl)cc(F)cc1Br`: the melting point is 56 °C.

Turning to `Cn1nc(-c2cccs2)cc1C=O`, the melting point was in the range of 76 to 77 °C.

As for `SC1=NNC(c2ccccn2)S1` (stereo not given), the melting point was in the range of 114 to 116 °C.

Regarding `C=C(C)C1CCC2(CO)CCC3(C)C(CCC4C5(C)CCC(O)C(C)(C)C5CCC43C)C12` (stereo not given), the melting point stood at 250 °C.

Consider `Cc1cc(C(C)(C)C)ccc1O`, for which the melting point amounted to 27.5 °C.

`Cc1ccccc1NC=C1C(=O)NN=C1c1c(O)c2ccccc2n(C)c1=O` registered a melting point of 288 °C.

The compound `CC(C)(C)c1cc([N+](=O)[O-])c(O)c([N+](=O)[O-])c1` displayed a melting point of 95 °C.

As to `Cc1noc(NS(=O)(=O)c2ccc(N)cc2)c1C`, the melting point was 193 °C.

The compound `N#Cc1cnn(-c2ccccc2)c1-n1cccc1` had a melting point of 81 to 83 °C.

Consider `NC(=O)NN=CC(=O)c1ccc(C(=O)C=NNC(N)=O)cc1`, for which the melting point came out at 246 °C.

`O=C(O)CCOc1ccc(F)cc1` yielded a melting point of 84 to 86 °C.

Compound `O=C(O)C(Cc1cc(I)c(O)c(I)c1)c1ccccc1` (stereo not given) had a melting point of 164 °C.

Take `CCOC(=O)CC(=O)OCC`: the melting point was -50 °C.

As for `CCc1cc(C(F)(F)F)c2c([nH]c3ccccc32)c1CO`, the melting point is 150 to 153 °C.

Consider `CCCCOC(=O)CC(C)=O`, for which the melting point is -35.6 °C.

Take `Cn1c(=O)n(-c2ccccc2)c(=O)c2c3c(sc21)CCCC3`: the melting point is 249 to 251 °C.

As to `OC12CCCCC1c1ccccc12` (stereo not given), the melting point is 112 °C.

Take `FC(F)(F)c1ccc(N2CCCNCC2)nc1`: the melting point fell in the range of 50 to 53 °C.

Compound `O=S(=O)(O)c1ccc(Nc2ccccc2)cc1` had a melting point of 206 °C.

In the case of `N#CCC[Si](Cl)(Cl)Cl`, the melting point is 33 to 34 °C.

The compound `COC(=O)[C@H](CSCc1ccccc1)NC(C)=O` registered a melting point of 67 to 73 °C.

With `C1CCSSC1`, the melting point stood at 32.5 °C.

In the case of `CN(C)c1ccc(C(Br)=NNc2ccc([N+](=O)[O-])cc2)cc1`, the melting point was found to be 188 °C.

Regarding `O=C(O)CCC(=O)c1ccc2c(c1)OCCO2`, the melting point is 138 to 140 °C.

Take `NNc1ccc(C(F)(F)F)cc1`: the melting point was determined as 62 °C.

`N#Cc1c(C(F)(F)F)cc(-c2ccccc2)[nH]c1=O`: the melting point was 301 to 303 °C.

Consider `O=C1CCc2ccc(OCCCCN3CCN(c4cccc(Cl)c4Cl)CC3)cc2N1`, for which the melting point turned out to be 139 °C.

For the compound `NS(=O)(=O)c1cc2c(cc1Cl)NC(C(Cl)Cl)NS2(=O)=O` (stereo not given), the melting point was found to be 270 °C.

As for `Nc1ccccc1F`, the melting point was -29 °C.

In turn, `CN(N)c1cnc2ccccc2n1` showed a melting point of 107 to 108 °C.

Take `O=C(CCl)c1cc(Br)c(Cl)s1`: the melting point lay in the range of 77 to 78 °C.

`O=S(=O)(O)c1cccc2cnccc12` returned a melting point of 300 °C.

The compound `CCN(CC)C(=O)SCc1ccc(Cl)cc1` gave a melting point of 3.3 °C.

`COc1cc(C(F)(F)F)nc2ccc(C)c([N+](=O)[O-])c12` came in with a melting point of 181 to 183 °C.

Consider `COC(=O)c1ccc(N2CCCC2)cc1`, for which the melting point fell in the range of 141 to 143 °C.

On to `Nc1ccccc1N1CCNCC1`, for which the melting point stood at 115 °C.

Take `CC(=O)CCCCC(C)=O`: the melting point amounted to 44 °C.

`CNC(N)=S`: the melting point was determined as 120 °C.

In turn, `CCCCCCCCCCCCCCCCCC(=O)OCCCC` registered a melting point of 27 °C.

Compound `OC1COC(O)C(O)C1O` (stereo not given) registered a melting point of 152 to 160 °C.

For `O=C(CNc1ccccc1)Nc1ccc(Br)cc1`, the melting point is 154 °C.

`COC(=O)C(C(=O)OC)=C1SC2=C(C(=O)c3ccccc3C2=O)N1c1ccccc1` returned a melting point of 239 °C.

In the case of `COc1cc(N)c2c(c1N)C(=O)c1ccccc1C2=O`, the melting point stood at 242 °C.

`C1CCC(CCCCCC2CCCCC2)CC1`: the melting point was -13.6 °C.
